Experimental data taken from the supplement of paper PMC10307832.

Key:
Assay in all cases: relative viability (nuclei count vs DMSO), 5 days (fraction); higher = more cells survive
Veliparib + Vorinostat = compound: C[C@]1(c2nc3c(C(N)=O)cccc3[nH]2)CCCN1 [Veliparib] + O=C(CCCCCCC(=O)Nc1ccccc1)NO [Vorinostat] (partner 1 µM)
Method in brief: (§1)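 Relative viability equals treated-well nuclei counts divided by vehicle-well nuclei counts. Counts came from 4× images of lung cancer cell lines grown in 1536-well plates for 5 days after pin-tool dosing on the day after seeding. Dosing used one drug alone or a fixed anchor-drug dose plus five library-drug doses (not always all listed) in √10 steps, and values are medians of duplicate plates.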

[1] = compound: COC1=CC=C(C=C1)CN2C=CC3=C2C=C(C=C3)C(=O)NO + CC(=O)c1c(C)c2cnc(Nc3ccc(N4CCNCC4)cn3)nc2n(C2CCCC2)c1=O [Palbociclib] (partner 0.5 µM)
Method in brief: as §1

[2] = compound: COC1=CC=C(C=C1)CN2C=CC3=C2C=C(C=C3)C(=O)NO + C[C@@H](Oc1cc(-c2cnn(C3CCNCC3)c2)cnc1N)c1c(Cl)ccc(F)c1Cl [Crizotinib] (partner 1 µM)
Method in brief: as §1

Veliparib + Bortezomib = compound: C[C@]1(c2nc3c(C(N)=O)cccc3[nH]2)CCCN1 [Veliparib] + CC(C)C[C@H](NC(=O)[C@H](Cc1ccccc1)NC(=O)c1cnccn1)B(O)O [Bortezomib] (partner 0.002 µM)
Method in brief: as §1

Row | Cell Line | relative viability (Veliparib + Vorinostat; first compound 0.02 µM) | relative viability (Veliparib + Vorinostat; first compound 0.06325 µM) | relative viability (Veliparib + Vorinostat; first compound 0.2 µM) | relative viability (Veliparib + Vorinostat; first compound 0.6325 µM) | relative viability (Veliparib + Vorinostat; first compound 2 µM) | relative viability ([1]; first compound 0.08 µM) | relative viability ([1]; first compound 0.253 µM) | relative viability ([1]; first compound 0.8 µM) | relative viability ([1]; first compound 2.53 µM) | relative viability ([1]; first compound 8 µM) | relative viability ([2]; first compound 0.08 µM) | relative viability ([2]; first compound 0.253 µM) | relative viability ([2]; first compound 0.8 µM) | relative viability ([2]; first compound 2.53 µM) | relative viability ([2]; first compound 8 µM) | relative viability (Veliparib + Bortezomib; first compound 0.02 µM) | relative viability (Veliparib + Bortezomib; first compound 0.06325 µM) | relative viability (Veliparib + Bortezomib; first compound 0.2 µM) | relative viability (Veliparib + Bortezomib; first compound 0.6325 µM) | relative viability (Veliparib + Bortezomib; first compound 2 µM)
1 | BEN | 0.544 | 0.615 | 0.62 | 0.614 | 0.593 | 0.468 | 0.466 | 0.487 | 0.52 | 0.489 | 0.756 | 0.814 | 0.894 | 0.869 | 0.851 | 0.676 | 0.739 | 0.827 | 0.87 | 0.78
2 | CAL-12T | 0.695 | 0.834 | 0.729 | 0.589 | 0.886 | 0.424 | 0.517 | 0.585 | 0.325 | 0.566 | 0.474 | 0.616 | 0.702 | 0.686 | 0.542 | 0.862 | 0.72 | 0.952 | 1.18 | 0.971
3 | COR-L23 | 0.604 | 0.353 | 0.408 | 0.445 | 0.354 | 0.23 | 0.323 | 0.316 | 0.29 | 0.26 | 0.499 | 0.77 | 0.503 | 0.574 | 0.632 | 0.92 | 0.991 | 1.01 | 0.966 | 0.967
4 | COR-L 105 | 1.02 | 0.823 | 0.869 | 0.698 | 0.813 | 0.33 | 0.435 | 0.449 | 0.416 | 0.397 | – | 0.847 | 0.714 | 0.775 | 0.434 | 0.735 | 0.633 | 0.548 | 0.783 | 0.83
5 | ChaGo-K-1 | 0.555 | 0.735 | 0.662 | 0.65 | 0.74 | – | 0.914 | 0.928 | 0.904 | 0.874 | – | 1.24 | 1.06 | 1.09 | 0.926 | – | 0.863 | 1.09 | 1.05 | 0.804
6 | EKVX | – | 0.745 | 0.789 | 0.626 | 0.66 | – | 0.408 | 0.387 | 0.384 | 0.351 | 0.767 | 0.762 | 1.16 | 0.891 | 0.934 | 0.806 | 0.893 | 0.888 | 0.978 | 1.16
7 | EMC-BAC-2 | 0.606 | – | 0.646 | 0.638 | 0.493 | 0.401 | – | 0.528 | 0.511 | 0.459 | 0.224 | 0.828 | 0.746 | 0.708 | 0.687 | 1.11 | 1.03 | 1.07 | 1.05 | 1.09
8 | EPLC-272H | – | 0.457 | 0.424 | 0.518 | 0.474 | – | 0.325 | 0.314 | 0.311 | 0.319 | 0.825 | 0.906 | 1.08 | 0.867 | 0.896 | – | 0.84 | 0.964 | 0.85 | 0.878
9 | H3255 | 0.707 | 0.768 | 0.793 | 0.799 | 0.936 | 0.301 | 0.304 | 0.316 | 0.311 | 0.32 | 0.571 | 0.933 | 0.88 | 0.833 | 0.787 | 0.729 | 0.835 | 0.737 | 0.827 | 1.02
10 | HARA | – | 0.492 | 0.521 | 0.529 | 0.565 | 0.153 | 0.218 | 0.243 | 0.3 | 0.238 | 0.194 | 1.1 | 0.99 | 1.09 | 0.951 | 1.13 | 1.1 | 0.995 | 1.11 | 1.16
11 | HCC-15 | 0.838 | 0.927 | 0.862 | 0.803 | 0.757 | 0.712 | 0.716 | 0.733 | 0.745 | 0.739 | 0.616 | 0.805 | 0.919 | 0.787 | 0.814 | 0.781 | 1.02 | 0.991 | 0.932 | 0.984
12 | HCC-44 | 1.07 | 1.03 | 1.07 | 1.06 | 1.15 | 0.936 | 0.926 | 1.01 | 0.978 | 0.969 | 0.746 | 0.781 | 0.824 | 0.852 | 0.815 | 0.885 | 0.759 | 0.879 | 0.829 | 0.846
13 | HCC-78 | 0.5 | 0.437 | 0.453 | 0.44 | 0.452 | 0.437 | 0.473 | 0.45 | 0.496 | 0.452 | – | 0.373 | 0.345 | 0.342 | 0.344 | 0.537 | 0.482 | 0.639 | 0.428 | 0.474
14 | HCC-366 | 0.379 | 0.232 | 0.296 | 0.27 | 0.289 | 0.339 | 0.372 | 0.38 | 0.367 | 0.389 | – | 0.476 | 0.534 | 0.413 | 0.352 | 1.06 | 1.05 | 1.01 | 1.07 | 1.07
15 | HCC-827 | 0.764 | 0.834 | 0.793 | 0.671 | 0.746 | 0.448 | 0.481 | 0.442 | 0.504 | 0.442 | 0.87 | 0.968 | 0.898 | 0.961 | 0.878 | 1.02 | 0.914 | 1.01 | 1.13 | 1.13
16 | HOP-62 | 0.557 | 0.527 | 0.593 | 0.539 | 0.68 | 0.321 | 0.442 | 0.431 | 0.413 | 0.493 | 0.826 | 0.833 | 1.01 | 1.01 | 0.959 | 0.729 | 1.16 | 0.811 | 0.733 | 0.951
17 | LC-2-ad | 0.434 | 0.656 | 0.717 | 0.655 | 0.788 | 0.446 | 0.532 | 0.506 | 0.484 | 0.47 | 0.33 | 0.531 | 0.467 | 0.408 | 0.397 | – | 0.987 | 0.985 | 0.944 | 1.05
